The supplement of paper PMC11061612

Columns and labels:
[1] = system: SK-GT-4 (Esophageal Adenocarcinoma); assay: Bliss excess, mean over the matrix (fraction); higher = more synergy
How it was run: (§1)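 Bliss excess equals the observed combination effect minus the expected value EA + EB − EA·EB, where EA and EB are the effects of each agent alone. Combination Emax is the second-highest inhibition within the matrix. Inhibition was scaled from CellTiter-Glo 2.0 luminescence, with 0 set by vehicle wells and 1 by blank wells, after 72 hours of two-drug dosing of cells plated in 1536-well plates.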

[2] = system: 8505C (Thyroid Gland Carcinoma); assay: combination Emax (second highest fraction inhibited in the dose matrix, 72 h); higher = more inhibition; extreme values may be limits of the assay
How it was run: as §1

[3] = system: CHSA8926 (Chondrosarcoma); assay: as above
How it was run: as §1

[4] = system: COR-L279 (Small Cell Lung Carcinoma); assay: as above
How it was run: as §1

[5] = system: DMS-114 (Small Cell Lung Carcinoma); assay: as above
How it was run: as §1

[6] = system: ESO51 (Esophageal Adenocarcinoma); assay: as above
How it was run: as §1

[7] = system: HCC1187 (Breast Carcinoma); assay: as above
How it was run: as §1

[8] = system: IM-95 (Gastric Carcinoma); assay: as above
How it was run: as §1

[9] = system: KP-3 (Pancreatic Carcinoma); assay: as above
How it was run: as §1

[10] = system: KY821 (Acute Myeloid Leukemia); assay: as above
How it was run: as §1

[11] = system: MN-60 (B-Lymphoblastic Leukemia); assay: as above
How it was run: as §1

[12] = system: NCI-H520 (Squamous Cell Lung Carcinoma); assay: as above
How it was run: as §1

[13] = system: NCI-H661 (Non-Small Cell Lung Carcinoma); assay: as above
How it was run: as §1

[14] = system: PC-3 (Prostate Carcinoma); assay: as above
How it was run: as §1

[15] = system: SK-GT-4 (Esophageal Adenocarcinoma); assay: as above
How it was run: as §1

[16] = system: SNU-398 (Hepatocellular Carcinoma); assay: as above
How it was run: as §1

[17] = system: ST486 (Burkitt's Lymphoma); assay: as above
How it was run: as §1

[18] = system: SU-DHL-5 (B-Cell Non-Hodgkin's Lymphoma); assay: as above
How it was run: as §1

[19] = system: SUP-B15 (B-Lymphoblastic Leukemia); assay: as above
How it was run: as §1

[20] = system: T-T (Esophageal Squamous Cell Carcinoma); assay: as above
How it was run: as §1

Structure (SMILES) | Bliss excess [1] | combination Emax [2] | combination Emax [3] | combination Emax [4] | combination Emax [5] | combination Emax [6] | combination Emax [7] | combination Emax [8] | combination Emax [9] | combination Emax [10] | combination Emax [11] | combination Emax [12] | combination Emax [13] | combination Emax [14] | combination Emax [15] | combination Emax [16] | combination Emax [17] | combination Emax [18] | combination Emax [19] | combination Emax [20]
CC1(C)CCC(CN2CCN(c3ccc(C(=O)NS(=O)(=O)c4ccc(NCC5CCOCC5)c([N+](=O)[O-])c4)c(Oc4cnc5[nH]ccc5c4)c3)CC2)=C(c2ccc(Cl)cc2)C1 [Venetoclax] + C[C@@H](Nc1cc(F)cc(F)c1)c1cc(C(=O)N(C)C)cc2c(=O)cc(N3CCOCC3)oc12 [AZD8186] (first compound max 1 µM, 7x7, partner max 3 µM) | -0.0263 | 0.109 | 0.478 | 0.394 | 0.113 | 0.334 | 0.138 | 0.208 | 0.0603 | 1 | 0.418 | 0.488 | 0.164 | 0.312 | 0.229 | 0.166 | 0.695 | 0.984 | 1 | 0.172
Cc1c2c(nn1C)CSCc1cc(n(C)n1)CSc1cc(c3ccccc3c1)OCCCc1c(C(=O)O)n(C)c3c-2c(Cl)ccc13 [AZD5991] + C1CN(CCC1(C(=O)N[C@@H](CCO)C2=CC=C(C=C2)Cl)N)C3=NC=NC4=C3C=CN4 [Capivasertib] (first compound max 1 µM, 7x7, partner max 3 µM) | -0.0213 | 0.158 | 0.597 | 0.579 | 0.911 | 0.0827 | 1 | 0.784 | 0.135 | 1 | 0.339 | 0.561 | 0.755 | 0.287 | 0.377 | 1 | 0.829 | 1 | 1 | 0.922
CC1(C)CCC(CN2CCN(c3ccc(C(=O)NS(=O)(=O)c4ccc(NCC5CCOCC5)c([N+](=O)[O-])c4)c(Oc4cnc5[nH]ccc5c4)c3)CC2)=C(c2ccc(Cl)cc2)C1 [Venetoclax] + C=CCn1c(=O)c2cnc(Nc3ccc(N4CCN(C)CC4)cc3)nc2n1-c1cccc(C(C)(C)O)n1 [AZD1775] (first compound max 1 µM, partner max 1 µM) | 0.0384 | 0.244 | 0.57 | 0.746 | 0.437 | 0.647 | 0.442 | 0.299 | 0.307 | 1 | 0.305 | 0.647 | 0.63 | 0.29 | 0.715 | 0.711 | 0.978 | 0.986 | 1 | 0.711
CN(CCO)CC[C@H](CSc1ccccc1)Nc1ccc(S(=O)(=O)NC(=O)c2ccc(N3CCC([C@@H](O)c4ccccc4-c4ccc(Cl)cc4)CC3)cc2)cc1S(=O)(=O)C(F)(F)F [AZD4320] + C[C@@H]1COCCN1C2=NC(=NC(=C2)C3(CC3)[S@](=N)(=O)C)C4=C5C=CNC5=NC=C4 [AZD6738] (first compound max 1 µM, 7x7, partner max 10 µM) | -0.0873 | 0.59 | 0.761 | 1 | 0.592 | 0.861 | 0.536 | 0.778 | 0.486 | 1 | 0.51 | 0.696 | 0.674 | 0.584 | 0.675 | 0.77 | 0.969 | 1 | 1 | 0.561
CS(=O)(=O)CCNCc1ccc(-c2ccc3ncnc(Nc4ccc(OCc5cccc(F)c5)c(Cl)c4)c3c2)o1 [Lapatinib] + C[C@@H](Oc1cc(-c2cnn(C3CCNCC3)c2)cnc1N)c1c(Cl)ccc(F)c1Cl [Crizotinib] (first compound max 10 µM, 7x7, partner max 10 µM) | -0.0211 | 0.721 | 0.928 | 0.953 | 0.893 | 0.997 | 0.715 | 0.854 | 0.557 | 0.986 | 0.834 | 0.659 | 0.703 | 0.494 | 0.82 | 0.77 | 0.942 | 1 | 0.963 | 0.938
CC1(C)CCC(CN2CCN(c3ccc(C(=O)NS(=O)(=O)c4ccc(NCC5CCOCC5)c([N+](=O)[O-])c4)c(Oc4cnc5[nH]ccc5c4)c3)CC2)=C(c2ccc(Cl)cc2)C1 [Venetoclax] + Cn1cnc2c(F)c(Nc3ccc(Br)cc3Cl)c(C(=O)NOCCO)cc21 [Selumetinib] (first compound max 1 µM, 7x7, partner max 3 µM) | -0.0512 | 0.36 | 0.148 | 0.213 | 0.0989 | 0.384 | 0.129 | 0.179 | 0.135 | 1 | 0.347 | 0.113 | 0.0912 | 0.152 | 0.473 | 0.352 | 0.754 | 0.339 | 1 | 0.221
Cn1cnc2c(F)c(Nc3ccc(Br)cc3Cl)c(C(=O)NOCCO)cc21 [Selumetinib] + CCN(CCO)CCCOc1ccc2c(Nc3cc(CC(=O)Nc4cccc(F)c4)[nH]n3)ncnc2c1 [AZD2811] (first compound max 10 µM, 7x7, partner max 1 µM) | -0.0533 | 0.388 | 0.139 | 0.765 | 0.281 | 0.454 | 0.94 | 0.519 | 0.202 | 0.843 | 0.342 | 0.17 | 0.0527 | 0.141 | 0.533 | 0.662 | 0.852 | 0.915 | 1 | 0.269
Cc1c2c(nn1C)CSCc1cc(n(C)n1)CSc1cc(c3ccccc3c1)OCCCc1c(C(=O)O)n(C)c3c-2c(Cl)ccc13 [AZD5991] + C=CCn1c(=O)c2cnc(Nc3ccc(N4CCN(C)CC4)cc3)nc2n1-c1cccc(C(C)(C)O)n1 [AZD1775] (first compound max 1 µM, partner max 1 µM) | -0.0617 | 0.27 | 0.679 | 0.466 | 0.657 | 0.591 | 0.998 | 0.895 | 0.269 | 1 | 0.188 | 0.76 | 0.949 | 0.245 | 0.465 | 1 | 1 | 1 | 1 | 0.915
CCN(CCO)CCCOc1ccc2c(Nc3cc(CC(=O)Nc4cccc(F)c4)[nH]n3)ncnc2c1 [AZD2811] + C=CCn1c(=O)c2cnc(Nc3ccc(N4CCN(C)CC4)cc3)nc2n1-c1cccc(C(C)(C)O)n1 [AZD1775] (first compound max 1 µM, partner max 1 µM) | -0.0545 | 0.188 | 0.455 | 0.662 | 0.243 | 0.627 | 0.839 | 0.475 | 0.209 | 1 | 0.291 | 0.674 | 0.543 | 0.237 | 0.363 | 0.417 | 0.983 | 1 | 0.966 | 0.303
CC(=O)c1c(C)c2cnc(Nc3ccc(N4CCNCC4)cn3)nc2n(C2CCCC2)c1=O [Palbociclib] + Cc1c2c(nn1C)CSCc1cc(n(C)n1)CSc1cc(c3ccccc3c1)OCCCc1c(C(=O)O)n(C)c3c-2c(Cl)ccc13 [AZD5991] (first compound max 10 µM, 7x7, partner max 1 µM) | -0.0645 | 0.245 | 0.289 | 0.627 | 0.49 | 0.218 | 1 | 0.33 | 0.221 | 1 | 0.443 | 0.638 | 0.631 | 0.169 | 0.305 | 0.944 | 0.832 | 1 | 0.986 | 0.799
CN(CCO)CC[C@H](CSc1ccccc1)Nc1ccc(S(=O)(=O)NC(=O)c2ccc(N3CCC([C@@H](O)c4ccccc4-c4ccc(Cl)cc4)CC3)cc2)cc1S(=O)(=O)C(F)(F)F [AZD4320] + C[C@@H](Nc1cc(F)cc(F)c1)c1cc(C(=O)N(C)C)cc2c(=O)cc(N3CCOCC3)oc12 [AZD8186] (first compound max 1 µM, 7x7, partner max 3 µM) | -0.0206 | 0.502 | 0.863 | 1 | 0.362 | 0.336 | 0.35 | 0.855 | 0.178 | 1 | 0.226 | 0.688 | 0.308 | 0.437 | 0.415 | 0.273 | 0.887 | 0.99 | 1 | 0.305
Cc1cc2ncnn2cc1Nc1ncc2c(n1)n(C1CCOCC1)c(=O)n2C [AZD7648] + O=C(c1cc(Cc2n[nH]c(=O)c3ccccc23)ccc1F)N1CCN(C(=O)C2CC2)CC1 [Olaparib] (first compound max 10 µM, 7x7, partner max 10 µM) | -0.0258 | 0.229 | 0.241 | 0.858 | 0.236 | 0.224 | 0.294 | 0.204 | 0.0579 | 0.355 | 0.175 | 0.485 | 0.215 | 0.265 | 0.26 | 0.134 | 0.424 | 0.96 | 0.917 | 0.0568
